Patent US20240335462A1, “SULFUR/PHOSPHORUS-CONTAINING ARYL COMPOUND AND APPLICATION THEREOF” (MEDSHINE DISCOVERY INC., priority 2021, published 2024)
Where a name gives a salt, the structure may show the parent alone. Read-outs that look alike come from different tables or passages of the source. Marks after values point to notes of the source that are not given here.

Legend:
[1] = biological target: Ba/F3-FL-TYK2-E957D cells (Homo sapiens, UniProt P29597, E957D, cells depend on it); test: Proliferation of Ba/F3-FL-TYK2-E957D cells (CellTiter-Glo); assay type: cell-based, mouse; details: 72 hours, read-out: Half maximal inhibitory concentration IC50 for cells Ba/F3-FL-TYK2-E957D
Ba/F3-FL-TYK2-E957D cells, sequence (P29597 whole entry E957D): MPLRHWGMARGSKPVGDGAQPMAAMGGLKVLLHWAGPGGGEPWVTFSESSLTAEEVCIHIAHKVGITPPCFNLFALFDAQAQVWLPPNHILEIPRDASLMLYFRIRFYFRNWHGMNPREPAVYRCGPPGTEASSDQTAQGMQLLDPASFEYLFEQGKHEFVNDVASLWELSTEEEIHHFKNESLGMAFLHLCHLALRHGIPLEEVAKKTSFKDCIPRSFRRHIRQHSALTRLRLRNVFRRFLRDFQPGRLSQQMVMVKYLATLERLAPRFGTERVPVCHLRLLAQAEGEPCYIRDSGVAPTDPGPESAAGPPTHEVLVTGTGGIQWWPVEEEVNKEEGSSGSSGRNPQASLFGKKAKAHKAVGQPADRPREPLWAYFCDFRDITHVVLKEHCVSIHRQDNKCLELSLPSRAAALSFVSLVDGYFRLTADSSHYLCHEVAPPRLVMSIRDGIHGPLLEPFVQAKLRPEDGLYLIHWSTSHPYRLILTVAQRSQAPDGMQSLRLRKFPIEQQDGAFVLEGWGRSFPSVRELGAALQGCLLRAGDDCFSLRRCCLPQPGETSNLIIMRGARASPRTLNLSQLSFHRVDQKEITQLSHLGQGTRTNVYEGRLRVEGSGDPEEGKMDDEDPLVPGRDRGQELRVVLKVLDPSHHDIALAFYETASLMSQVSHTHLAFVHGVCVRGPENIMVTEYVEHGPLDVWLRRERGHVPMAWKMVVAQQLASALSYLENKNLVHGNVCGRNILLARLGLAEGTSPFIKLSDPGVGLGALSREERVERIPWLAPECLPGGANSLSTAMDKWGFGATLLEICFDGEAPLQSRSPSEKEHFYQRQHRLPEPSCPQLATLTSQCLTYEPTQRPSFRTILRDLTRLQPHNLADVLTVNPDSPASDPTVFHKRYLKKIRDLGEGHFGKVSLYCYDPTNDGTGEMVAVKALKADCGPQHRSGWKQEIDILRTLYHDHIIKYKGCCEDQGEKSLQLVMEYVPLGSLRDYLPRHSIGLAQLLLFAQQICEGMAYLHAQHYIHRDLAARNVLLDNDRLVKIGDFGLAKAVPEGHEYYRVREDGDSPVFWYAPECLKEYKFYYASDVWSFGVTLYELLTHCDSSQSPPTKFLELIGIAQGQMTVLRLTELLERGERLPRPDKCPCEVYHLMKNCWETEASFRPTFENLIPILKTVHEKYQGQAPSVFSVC
Description: Adenosine triphosphate (ATP) serves as a universal energy carrier in various life processes, representing the smallest unit of energy storage and transfer. The CellTiter-Glo™ Luminescent Cell Viability Assay Kit utilizes luciferase as a detection agent. During the luminescent process, luciferase requires the participation of ATP. By adding CellTiter-Glo™ reagent to the cell culture medium and measuring the luminescence, the light signal was directly proportional to the amount of ATP in the system, and ATP was positively correlated with the number of viable cells. Therefore, cell proliferation can be detected by measuring ATP content using the CellTiter-Glo kit. In this test, the cell lines used were Ba/F3-FL-TYK2-E957D and Ba/F3-TEL-TYK2. Ba/F3-FL-TYK2-E957D cells can stably express the exogenously introduced human TYK2-E957D gene, and the TYK2-E957D gene sequence contains both JH1 and JH2 domains. On the other hand, Ba/F3-TEL-TYK2 cells can stably express the exogenously introduced human TEL-TYK2 gene, and the TEL-TYK2 gene sequence contains only the JH1 domain of TYK2.
The cell lines were cultured in an incubator at 37° C. with 5% CO2. Regular passaging was performed, and cells in the logarithmic growth phase were selected for plating.
• a) The test compounds were prepared into a 10 mM solution with DMSO, and then diluted to 0.3 or 1 mM with DMSO. • b) Preparation of 1000× compound storage plate (tube): The compounds were 3-fold serially diluted from the highest concentration to the lowest concentration, creating 9 different concentrations. • c) Preparation of 20× compound working solution: 49 μL of cell culture medium was added to a flat-bottomed 96-well transparent drug plate. From the 1000× compound storage plate, 1 μL of the compound was pipetted into the cell culture medium in the 96-well transparent drug plate. In the solvent control, 1 μL of DMSO was added. After the compound or DMSO was added, the mixture was homogenized using a multi-channel pipette.
• a) Cells were stained with trypan blue and viable cells were counted to ensure a cell viability of 90% or more. • b) 95 μL of cell suspension (2000 cells/well) was added to each well of the compound assay cell plate, and cell-free culture medium containing 0.1% DMSO was added to the Min control wells. • c) Administration in the compound assay cell plate: 5 μL of 20× compound working solution was added to the cell culture plate. 5 μL of DMSO-cell culture medium mixture was added to the Max control wells. The final concentration of DMSO was 0.1%. • d) The culture plate was then incubated in an incubator at 37° C. with 5% CO2 for 72 hours.
The following steps were conducted in accordance with the instructions of the Promega CellTiter-Glo Luminescent Cell Viability Assay Kit (Promega-G7573). • a) CellTiter-Glo buffer was thawed and brought to room temperature. • b) CellTiter-Glo substrate was also brought to room temperature. • c) CellTiter-Glo buffer was added to a bottle of CellTiter-Glo substrate to dissolve the substrate, thereby preparing CellTiter-Glo working solution. • d) The mixture was slowly vortexed and shaken to be fully dissolved. • e) The cell culture plate was removed and allowed to equilibrate to room temperature for 10 minutes. • f) 50 μL (equal to half the volume of cell culture medium in each well) of CellTiter-Glo working solution was added to each well. • g) The culture plate was shaken on an orbital shaker for 2 minutes to induce cell lysis. • h) The plate was then left at room temperature for 10 minutes to stabilize the luminescent signal. • i) The luminescent signal was detected using a SpectraMax Paradigm plate reader.
Data analysis was conducted using GraphPad Prism 5.0 software. Nonlinear S-curve regression was employed to fit the data and generate dose-response curves. From these curves, the IC50 values were calculated.

[2] = test system: IL-23-induced psoriasis-like skin lesions; test: Mouse psoriasis-like model induced by IL-23; assay type: in vivo, C57BL/6 mice; design: Total score for epidermal hyperplasia of ear pinnae / AUC of total score for epidermal hyperplasia of ear pinnae / Pathological score: Degree of keratinization / Pathological score: Epidermal thickness / Pathological score: Dermal thickness / Pathological score: Inflammatory cell infiltration / Comprehensive pathological score: scale not given here
Description: The purpose of this experiment was to evaluate the prophylactic and therapeutic effect of the test substance on IL-23-induced psoriasis-like skin lesions in mice by intradermal injection of IL-23 into the ear pinnae in a psoriasis-like skin lesion model.
Female C57BL/6 mice of qualified body weight were randomly divided into groups, with 6 mice per group. The grouping and administration information was as follows. The groups were: blank control group, model group, positive control Ustekinumab (5 mg/kg) group, WX-011A hydrochloride (30, 50 mg/kg) group, and WX-020 sulfate (30, 50 mg/kg) group. Except for the blank control group, the animals in the other groups received an intradermal injection of IL-23 (3 μg/10 μL/mouse/day, QD) in the right ear for 8 consecutive days (Day 0 to Day 7). The blank control group received an intradermal injection of an equal volume of saline solution (10 μL/mouse/day, QD) in the right ear for 8 consecutive days (Day 0 to Day 7). Concurrent with model induction, the solvent or test drug was orally administered twice a day (Bid) at 6-hour intervals for 8 consecutive days (Day 0 to Day 7). The positive control was subcutaneously injected on Day 0 and Day 3 (a total of 2 doses). During the administration period, the body weight of the animals was monitored every two days. On Day 0, Day 2, Day 4, Day 6 (all before IL-23 injection), and Day 8, the thickness of the right ear of the mice was measured, and the appearance of the ear pinnae was observed and scored.
The compounds were all prepared into a clear solution with 10% DMSO+[…] as a solvent for PO (oral gavage) administration. Administration volume parameters: 10 mL/kg based on the body weight of the mice.
After grouping, IL-23 (3 μg/10 μL/mouse/day, QD) was injected intradermally into the right ears of the mice for 8 consecutive days (Day 0 to Day 7). Measurements of the thickness of the right ear and observations and scoring of the appearance of the ear pinnae were performed on Day 0, Day 2, Day 4, Day 6 (all before IL-23 injection), and Day 8. At the end of the experiment (Day 8), the left ear tissues of the mice from groups G4 to G10 (3 animals per group at each time point) were collected. The right ear, which had been modeled, was excised, an 8 mm ear punch was taken along the edge of the pinna, and its weight was measured. The excised right ear tissues were fixed in formalin for histopathological examination (H&E staining).
Concurrent with model induction, corresponding drug treatment was given for administration. Except for the positive control drug (Ustekinumab), which was subcutaneously injected on Day 0 and Day 3 (once a day), control and test drugs for each dose group were orally administered by gavage twice a day at 6-hour intervals for 8 consecutive days (Day 0 to Day 7).
The pathological scoring of mouse ear tissue sections was conducted according to the criteria in Table 33.
The experimental data are represented as Mean±SD; statistical analysis was performed using IBM SPSS Statistics 21, with p<0.05 considered to indicate a statistically significant difference between the two groups. The effect of the test substance on the thickness of mouse ears in the IL-23 induced mouse pinna epidermal hyperplasia model is shown in Table 34. The effect of the test substance on the total score and AUC for […] induced mouse pinna epidermal hyperplasia is shown in Table 35.

[3] = Pharmacokinetic testing in mice; assay type: in vivo, male CD-1 mice; details: mouse; for Vd / AUC(0-t) / half-life / C0 / bioavailability / Cmax / Tmax: male, CD-1, plasma; for Vd: read-out: Apparent volume of distribution Vd; for AUC(0-t): read-out: Area under the curve AUC0-last; for half-life: read-out: Half-life T1/2 (converted); for C0: read-out: Starting concentration C0; for bioavailability: read-out: Bioavailability F %; for Cmax: read-out: Peak concentration Cmax; for Tmax: read-out: Time to peak concentration Tmax
Method: The objective was to study the pharmacokinetic behavior of the compound of the present disclosure in mice and evaluate the pharmacokinetic characteristics, using male CD-1 mice aged 7 to 9 weeks as test animals. The drug concentrations in plasma at different time points after a single intravenous injection (IV) and oral administration (PO) of the compound were determined using LC/MS/MS.
The pharmacokinetic characteristics of the compound in rodents following intravenous injection and oral administration were tested using a standard protocol. Test animals were fasted for 10 to 14 hours before administration and allowed to feed 4 hours post-administration. The compound was prepared into a clear solution with the appropriate solvent for both IV (intravenous injection) and PO (oral gavage) administration. The solvent was 10% DMSO+10% solutol+80% (10% HP-β-CD aqueous solution). Whole blood samples were collected within 24 hours, centrifuged at 6000 g for 3 minutes, and the supernatant was separated to obtain plasma samples. Protein precipitation was performed by adding four times the volume of acetonitrile solution containing internal standard to the plasma samples. After centrifugation, the supernatant was added with an equal volume of water and then centrifuged before being subjected to LC-MS/MS analysis for quantifying plasma drug concentration. Pharmacokinetic parameters such as peak concentration, time to peak concentration, clearance, half-life, area under the drug-time curve, and bioavailability were calculated.

[4] = 5 mg/kg SC on Day 0 and Day 3, Day 0
[5] = 5 mg/kg SC on Day 0 and Day 3, Day 2
[6] = 5 mg/kg SC on Day 0 and Day 3, Day 4
[7] = 5 mg/kg SC on Day 0 and Day 3, Day 6
[8] = 5 mg/kg SC on Day 0 and Day 3, Day 8
[9] = 5 mg/kg SC, right ear H&E sections

With CNC(=O)c1nnc(NC(=O)C2CC2)cc1Nc1cccc(-c2ccc(S(=N)(=O)C(C)C)nn2)c1OC (single isomer, unassigned) [WX-036A] the GI50 [1] was 8.3 nM.

In the case of CCP(=O)(CC)c1ccc(-c2cccc(Nc3cc(NC(=O)C4CC4)nnc3C(=O)NC)c2OC)nc1 [WX-022], the GI50 [1] is reported as 13.7 nM.

Work on CCN=S(=O)(c1ccc(-c2cccc(Nc3cc(NC(=O)C4CC4)nnc3C(=O)NC)c2OC)nc1)C(C)C (stereo not shown) [Hydrochloride of WX-016] yielded a GI50 [1] of 11.7 nM.

In the case of CNC(=O)c1cnc(NC(=O)C2CC2)cc1Nc1cccc(-c2ccc(S(=O)(=O)C(C)C)nn2)c1OC [WX-038], the GI50 [1] is reported as 3 nM.

With [2H]C([2H])([2H])NC(=O)c1cnc(NC(=O)C2CC2)cc1Nc1cccc(-c2ncc(S(=N)(=O)C(C)C)cn2)c1OC (stereo not shown) [Trifluoroacetate of WX-009] the GI50 [1] was 12.1 nM.

With CCP(=O)(CC)c1ccc(-c2cccc(Nc3cc(NC(=O)C4CC4)ncc3C(=O)NC)c2OC)cc1 [WX-025] the GI50 [1] was 12.7 nM.

CNC(=O)c1cnc(NC(=O)C2CC2)cc1Nc1cccc(-c2ccc(S(=O)(=O)C(C)C)nc2)c1OC [WX-039] gave a GI50 [1] of 4.7 nM.

CNC(=O)c1nnc(NC(=O)C2CC2)cc1Nc1cccc(-c2ccc(S(=N)(=O)C(C)C)nc2)c1OC (single isomer, unassigned) [WX-037A] showed a GI50 [1] of 15 nM.

For CNC(=O)c1nnc(NC(=O)C2CC2)cc1Nc1cccc(-c2ccc(P(=O)(C3CC3)C3CC3)cc2)c1OC [WX-024], the GI50 [1] was 10 nM.

In the case of CNC(=O)c1cnc(NC(=O)C2CC2)cc1Nc1cccc(-c2ncc(S(=O)(=O)N(C)C)cn2)c1OC [Hydrochloride of WX-017], the GI50 [1] is reported as 4 nM.

In the case of [2H]C([2H])([2H])NC(=O)c1cnc(NC(=O)C2CC2)cc1Nc1cccc(-c2ccc(S(C)(=O)=NC)cc2)c1OC (stereo not shown) [Hydrochloride of WX-010], the GI50 [1] is reported as 12.6 nM.

For CNC(=O)c1nnc(NC(=O)C2CC2)cc1Nc1cccc(-c2ccc(P(=O)(C(C)C)C(C)C)cc2)c1OC [WX-023], the GI50 [1] was 13.8 nM.

For “Ustekinumab: positive control Ustekinumab (anti-IL-12/IL-23), Selleck, subcutaneously injected [reference compound]”, the “Ear thickness (mm)” value [2, 4] was 0.196 mm, the “Total score for epidermal hyperplasia of ear pinnae” value [2, 4] was 0.00 and the “AUC of total score for epidermal hyperplasia of ear pinnae” value ([2]; 5 mg/kg SC on Day 0 and Day 3, Day 0 to Day 8) was 2.83**. The “Ear thickness (mm)” value [2, 5] was 0.277* mm, the “Total score for epidermal hyperplasia of ear pinnae” value [2, 5] was 0.00 and the “Ear thickness (mm)” value [2, 6] was 0.288** mm. For the same compound, the “Total score for epidermal hyperplasia of ear pinnae” value [2, 6] was 0.33*, the “Ear thickness (mm)” value [2, 7] was 0.316** mm and the “Total score for epidermal hyperplasia of ear pinnae” value [2, 7] was 0.67**. The “Ear thickness (mm)” value [2, 8] was 0.329* mm, the “Total score for epidermal hyperplasia of ear pinnae” value [2, 8] was 0.83** and the Comprehensive pathological score [2, 9] was 3.50**. The “Pathological score: Degree of keratinization” value [2, 9] was 0.50**, the “Pathological score: Dermal thickness” value [2, 9] was 0.67 and the “Pathological score: Epidermal thickness” value [2, 9] was 1.17**. The “Pathological score: Inflammatory cell infiltration” value [2, 9] was 1.17**.

For CNC(=O)c1nnc(NC(=O)C2CC2)cc1Nc1cccc(-c2ncc(S(=N)(=O)C(C)C)cn2)c1OC (stereo not shown) [WX-011], the Vd ([3]; IV 1 mg/kg) was 0.7 L/kg, the AUC(0-t) ([3]; IV 1 mg/kg) was 4.79 µM·h and the half-life ([3]; IV 1 mg/kg) was 192 min. It also gave a C0 ([3]; IV 1 mg/kg) of 5.42 µM, an AUC(0-t) ([3]; PO 10 mg/kg) of 25 µM·h and a bioavailability ([3]; PO 10 mg/kg) of 52%. For the same compound, the Cmax ([3]; PO 10 mg/kg) was 10.2 µM, the Tmax ([3]; PO 10 mg/kg) was 30 min and the “Apparent clearance Cl” value ([3]; IV 1 mg/kg) was 6.6 mL/kg/min.

CNC(=O)c1nnc(NC(=O)C2CC2)cc1Nc1cccc(-c2ccc(S(=N)(=O)C(C)C)cn2)c1OC (stereo not shown) [WX-012] gave a Vd ([3]; IV 1 mg/kg) of 2.9 L/kg, an AUC(0-t) ([3]; IV 1 mg/kg) of 2.46 µM·h and a half-life ([3]; IV 1 mg/kg) of 264 min. The C0 ([3]; IV 1 mg/kg) was 2.75 µM, the AUC(0-t) ([3]; PO 10 mg/kg) was 16.7 µM·h and the bioavailability ([3]; PO 10 mg/kg) was 68%. For the same compound, the Cmax ([3]; PO 10 mg/kg) was 12.4 µM, the Tmax ([3]; PO 10 mg/kg) was 18 min and the “Apparent clearance Cl” value ([3]; IV 1 mg/kg) was 12.8 mL/kg/min.
